Results on eleven compounds are retold here after ChEMBL document CHEMBL1133158, “Beta-carbonyl substituted glutathione conjugates as inhibitors Of O. volvulus GST2” (Bioorg Med Chem Lett, 2000).

As usually defined, the IC50 is the midpoint of a concentration-inhibition curve. High values mean a need for much substance, low ones inhibition by little substance.

A value given as a limit tells only on which side of the number the result lay.

In assay [1] the target is Glutathione S-transferase P (Homo sapiens, UniProt P09211). Briefly: Inhibitory activity against human Glutathione S-transferase P.
Sequence of Glutathione S-transferase P (P09211 whole entry): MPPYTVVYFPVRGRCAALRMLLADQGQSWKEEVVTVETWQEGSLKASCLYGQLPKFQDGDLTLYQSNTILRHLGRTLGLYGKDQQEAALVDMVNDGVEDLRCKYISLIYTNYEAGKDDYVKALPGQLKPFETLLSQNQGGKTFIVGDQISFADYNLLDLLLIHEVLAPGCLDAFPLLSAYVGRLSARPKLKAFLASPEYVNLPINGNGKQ
Assay [2] in a line: Selectivity of compound for piGST to that of OvGST2.

In assay [1], `COC(=O)CC(SCC(NC(=O)CCC(N)C(=O)O)C(=O)NCC(=O)O)C(=O)OC` (stereo unspecified) gave a half-inhibitory concentration (IC50) of 208 µM.

On to `CCCCOC(=O)CC(SCC(NC(=O)CCC(N)C(=O)O)C(=O)NCC(=O)O)C(=O)O` (stereo unspecified), for which, in assay [2], the Selectivity worked out at 0.8. The IC50 in assay [1] is 40.3 µM.

`NC(CCC(=O)NC(CSC(CC(=O)O)C(=O)O)C(=O)NCC(=O)O)C(=O)O` (stereo unspecified) gave a Selectivity in assay [2] of over 13.9. This compound had a half-inhibitory concentration (IC50) in assay [1] of over 250 µM.

With `CC(C)C(=O)CC(SCC(NC(=O)CCC(N)C(=O)O)C(=O)NCC(=O)O)c1ccccc1` (stereo unspecified), the Selectivity in assay [2] was over 7.8. Besides, in assay [1], the IC50 was over 250 µM.

As to `NC(CCC(=O)NC(CSC1CCCC(=O)C1)C(=O)NCC(=O)O)C(=O)O` (stereo unspecified), the Selectivity in assay [2] is over 1.1. Moreover, the IC50 in assay [1] was over 250 µM.

Regarding `CCCOC(=O)CC(SCC(NC(=O)CCC(N)C(=O)O)C(=O)NCC(=O)O)C(=O)OCCC` (stereo unspecified), the IC50 in assay [1] is over 250 µM.

With `CCC(CC(C)=O)SCC(NC(=O)CCC(N)C(=O)O)C(=O)NCC(=O)O` (stereo unspecified), in assay [1], the IC50 came out at 5.2 µM. That is a single-digit micromolar value.

Regarding `CCC(=O)CC(C)SCC(NC(=O)CCC(N)C(=O)O)C(=O)NCC(=O)O` (stereo unspecified), the IC50 in assay [1] was 217 µM.

In assay [2], `CCCC(CC(C)=O)SCC(NC(=O)CCC(N)C(=O)O)C(=O)NCC(=O)O` (stereo unspecified) came in with a Selectivity of 1.3. For the same compound, in assay [1], the IC50 turned out to be 8.1 µM.

`CC(=O)CC(SCC(NC(=O)CCC(N)C(=O)O)C(=O)NCC(=O)O)c1ccccc1` (stereo unspecified) showed a half-inhibitory concentration (IC50) in assay [1] of 155 µM.

Turning to `CC(=O)CC(SCC(NC(=O)CCC(N)C(=O)O)C(=O)NCC(=O)O)C(C)C` (stereo unspecified), the IC50 in assay [1] is over 250 µM.
